Results reported in patent publication US10799507B2, “5-(7H-pyrrolo[2,3-d]pyrimidin-4-yl)-5-azaspiro[2.5]octane-8-carboxylic acid derivatives as novel JAK kinase inhibitors” (LEO Pharma A/S, priority 2017, dated 2020).

Key:
JAK1 = JAK1 (Homo sapiens (Human), UniProt P23458); experiment: JAK kinase assay (HTRF), JAK1; format: biochemical; conditions: catalytic domain, ATP at Km (7 μM)
In short: (§1)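 Catalytic-domain human JAK1 (GST-tagged, aa 850-1154) or His-tagged JAK2, baculovirus-expressed, phosphorylated 1 µM biotinylated TK peptide at Km ATP (JAK1 7 µM, 10 mM MgCl2, 50 nM SEB; JAK2 4 µM, 5 mM MgCl2) in pH 7.0 Hepes, 20-30 min RT. EDTA stop; overnight streptavidin-XL665/cryptate HTRF read.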

JAK2 = JAK2 (Homo sapiens (Human), UniProt O60674); experiment: JAK kinase assay (HTRF), JAK2; format: biochemical; conditions: catalytic domain, ATP at Km (4 μM)
Chain of JAK2 (O60674 849-1124): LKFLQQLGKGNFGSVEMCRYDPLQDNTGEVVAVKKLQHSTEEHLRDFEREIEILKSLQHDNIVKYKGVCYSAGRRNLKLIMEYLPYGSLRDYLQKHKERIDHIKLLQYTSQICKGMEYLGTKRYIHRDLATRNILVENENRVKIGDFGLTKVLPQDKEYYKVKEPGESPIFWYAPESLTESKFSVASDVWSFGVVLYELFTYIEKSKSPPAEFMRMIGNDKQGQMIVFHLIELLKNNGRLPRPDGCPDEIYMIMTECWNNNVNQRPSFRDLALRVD
In short: as §1

JAK3 = JAK3 (Homo sapiens (Human), UniProt P52333); experiment: JAK kinase assay (HTRF), JAK3; format: biochemical; conditions: catalytic domain, ATP at Km (2 μM)
Chain of JAK3 (P52333 822-1111): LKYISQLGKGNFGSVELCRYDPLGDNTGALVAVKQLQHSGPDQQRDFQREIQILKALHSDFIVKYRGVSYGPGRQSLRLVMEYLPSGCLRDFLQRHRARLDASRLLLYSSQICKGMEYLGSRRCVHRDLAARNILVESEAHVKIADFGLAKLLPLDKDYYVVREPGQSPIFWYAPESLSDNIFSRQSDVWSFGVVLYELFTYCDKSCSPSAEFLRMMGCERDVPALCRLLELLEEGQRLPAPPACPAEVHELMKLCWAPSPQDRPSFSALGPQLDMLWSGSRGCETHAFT
In short: (§2)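 Catalytic-domain human kinases, GST-tagged TYK2 (aa 871-1187) and His-tagged JAK3, phosphorylate 1 μM TK Substrate-Biotin for 20-30 min at RT in 50 mM Hepes pH 7.0, 5 mM MgCl2, ATP at Km (TYK2 13 μM with 50 nM SEB; JAK3 2 μM). Phosphorylation detected by HTRF.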

TYK2 = TYK2 (Homo sapiens (Human), UniProt P29597); experiment: JAK kinase assay (HTRF), TYK2; format: biochemical; conditions: catalytic domain, ATP at Km (13 μM)
Chain of TYK2 (P29597 871-1187): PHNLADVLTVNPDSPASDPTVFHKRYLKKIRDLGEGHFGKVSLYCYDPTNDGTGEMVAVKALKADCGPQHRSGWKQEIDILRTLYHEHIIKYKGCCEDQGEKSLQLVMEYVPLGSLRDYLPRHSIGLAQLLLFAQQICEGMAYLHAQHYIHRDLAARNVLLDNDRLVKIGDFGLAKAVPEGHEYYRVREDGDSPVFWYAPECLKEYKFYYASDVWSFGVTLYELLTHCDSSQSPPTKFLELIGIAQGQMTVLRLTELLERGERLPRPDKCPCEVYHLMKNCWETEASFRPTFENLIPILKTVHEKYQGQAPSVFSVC
In short: as §2

[1] = in vitro metabolic stability in human liver microsomes; format: in vitro ADME; conditions: human, liver microsomes, 0.5 μM compound, 0.5 mg/mL microsomes, NADPH, 40 min, 37° C.; read-out: Human liver microsome Clapp (apparent intrinsic clearance)
Method: To assess the in vitro metabolic stability, the compounds (0.5 μM) were incubated in duplicates with human liver microsomes (0.5 mg/mL) in phosphate buffer and NADPH, in 96-well plates for 40 min (37° C.), using a liquid handling robot (Hamilton Microlab Star). Sample aliquots were taken at 0, 5, 10, 20 and 40 min, and dispensed into cold acetonitrile, in order to stop the reactions. The plates were centrifuged for 30 minutes before the samples were analyzed using liquid chromatography coupled to a time-of-flight mass spectrometer (AB Sciex API5600). The compound depletion over time was used to estimate the elimination rate constant, from which the apparent intrinsic clearance, Clapp, was calculated and the values are listed in Table 2.

Chain of JAK1 (P23458 850-1154): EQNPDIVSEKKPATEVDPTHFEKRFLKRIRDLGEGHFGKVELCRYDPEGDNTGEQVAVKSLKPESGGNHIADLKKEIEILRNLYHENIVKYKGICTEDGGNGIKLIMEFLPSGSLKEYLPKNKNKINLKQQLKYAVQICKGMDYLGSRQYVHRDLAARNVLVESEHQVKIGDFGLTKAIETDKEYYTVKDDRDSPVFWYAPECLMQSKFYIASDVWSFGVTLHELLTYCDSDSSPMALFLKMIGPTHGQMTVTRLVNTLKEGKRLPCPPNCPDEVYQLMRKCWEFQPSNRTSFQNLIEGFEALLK

Row | SMILES | EC50 (JAK1) [nM] | EC50 (JAK2) [nM] | EC50 (JAK3) [nM] | EC50 (TYK2) [nM] | CLint scaled at 0.5 μM [1] [mL/min/kg]
1 | C[C@](CO)(NC(=O)[C@H]1CCN(c2ncnc3[nH]ccc23)CC12CC2)c1ccc(C#N)cc1 [Example 27, (8S)-N-[(1S)-1-(4-cyanophenyl)-2-hydroxy-1-methyl-ethyl]-5-(7H-pyrrolo[2,3-d]pyrimidin-4-yl)-5-azaspiro[2.5]octane-8-carboxamide] | 1.4 | 3.2 | 7 | 44.2 | 61
2 | O=C(OCC1CC(F)(F)C1)C1CCN(c2ncnc3[nH]ccc23)CC12CC2 (stereo not drawn) [Example 153, (3,3-difluorocyclobutyl)methyl 5-(7H-pyrrolo[2,3-d]pyrimidin-4-yl)-5-azaspiro[2.5]octane-8-carboxylate] | 2.3 | 3.2 | 8.9 | 68 | 160
3 | O=C(N[C@H](CO)C(=O)OCC1CC1)[C@H]1CCN(c2ncnc3[nH]ccc23)CC12CC2 [Example 91, cyclopropylmethyl (2R)-3-hydroxy-2-[[(8S)-5-(7H-pyrrolo[2,3-d]pyrimidin-4-yl)-5-azaspiro[2.5]octane-8-carbonyl]amino]propanoate] | 8.2 | 17.7 | 47.3 | 163 | 17
4 | O=C(NCC(O)C1CCCCC1)[C@H]1CCN(c2ncnc3[nH]ccc23)CC12CC2 (stereo partly drawn) [Example 2, (8S)-N-(2-cyclohexyl-2-hydroxy-ethyl)-5-(7H-pyrrolo[2,3-d]pyrimidin-4-yl)-5-azaspiro[2.5]octane-8-carboxamide] | 0.5 | 1.3 | 3.7 | 4.6 | > 200
5 | O=C(N[C@@H](CO)[C@H](O)c1ccc(F)cc1)[C@H]1CCN(c2ncnc3[nH]ccc23)CC12CC2 [Example 50, (8S)-N-[(1S,2R)-2-(4-fluorophenyl)-2-hydroxy-1-(hydroxymethyl)ethyl]-5-(7H-pyrrolo[2,3-d]pyrimidin-4-yl)-5-azaspiro[2.5]octane-8-carboxamide] | 3.5 | 7 | 22.7 | 53.2 | 109
6 | Cc1cc([C@H](CO)NC(=O)[C@H]2CCN(c3ncnc4[nH]ccc34)CC23CC3)ccc1C#N [Example 54, (8S)-N-[(1R)-1-(4-cyano-3-methyl-phenyl)-2-hydroxy-ethyl]-5-(7H-pyrrolo[2,3-d]pyrimidin-4-yl)-5-azaspiro[2.5]octane-8-carboxamide] | 3.6 | 13.5 | 33 | 135 | 142
7 | N#Cc1ccc(CNC(=O)C2CCN(c3ncnc4[nH]ccc34)CC23CC3)cc1 (stereo not drawn) [Example 26, N-[(4-cyanophenyl)methyl]-5-(7H-pyrrolo[2,3-d]pyrimidin-4-yl)-5-azaspiro[2.5]octane-8-carboxamide] | 1.4 | 6.4 | 11.2 | 196 | 78
8 | N#Cc1ccc(C(O)CNC(=O)C2CCN(c3ncnc4[nH]ccc34)CC23CC3)cc1 (stereo not drawn) [Example 39, N-[2-(4-cyanophenyl)-2-hydroxy-ethyl]-5-(7H-pyrrolo[2,3-d]pyrimidin-4-yl)-5-azaspiro[2.5]octane-8-carboxamide] | 2.4 | 4.8 | 11.5 | 75.4 | 186
9 | O=C(NC[C@@H](O)c1ccc(F)cc1)[C@H]1CCN(c2ncnc3[nH]ccc23)CC12CC2 [Example 7, (8S)-N-[(2S)-2-(4-fluorophenyl)-2-hydroxy-ethyl]-5-(7H-pyrrolo[2,3-d]pyrimidin-4-yl)-5-azaspiro[2.5]octane-8-carboxamide] | 0.6 | 1.7 | 8.8 | 4.9 | > 200
